Molecules are shown by their SMILES.

What is called inhibition is the percentage by which the read-out fell short of the control.

One test has as its target T1, recombinant E. coli LpxA (Escherichia coli, UniProt P0A722).
T1 construct: 6xHis (C); made in house; host or cells: E. coli BL21 (pET23b)
The test is described as follows: LpxA assay: acyl-UDP-GlcNAc formation from UDP-[3H]GlcNAc, TLC. The format is biochemical. The settings on record: 5 mM compound; FIG. 8. The source says:
The lpxA gene was amplified from an E. coli genomic library and inserted into a pET23b vector using standard recombinant DNA methodology. The 5′ oligonucleotide for amplification of the LpxA open reading frame was 5′-[…]-3′ (SEQ ID NO. 1) and contains a BamHI restriction enzyme site upstream of the LpxA ATG start codon and the 3′ oligonucleotide was 5′-[…]-3′ (SEQ ID NO. 2) and contains a XhoI restriction enzyme site downstream of the final codon of the LpxA open reading frame. Primers were custom synthesized. The primers were designed such that digestion of the amplification product would result in addition of a C-terminal 6×-His tag in frame with the LpxA open reading frame. Specifically, E. coli genomic DNA was isolated and an amplification reaction was carried out as follows: 33 μl water, 5 μl 10× reaction buffer, 1.5 μl of 50 mM magnesium sulfate, 3 μl of 10 mM dNTPs, 3 μl of a 50 μM solution of the 5′ LpxA primer, 3 μl of a 50 μM solution of the 3′ LpxA primer, 0.5 μl of E. coli genomic DNA solution, and 1 μl of polymerase. The reaction conditions were as follows: 94° C. for 2 minutes; followed by 30 cycles of 94° C. for 30 seconds, 50° C. for 30 seconds, 68° C. for 1.5 minutes, followed by an extension at 68° C. for 7 minutes. The resulting LpxA product was separated from other DNA on a 0.8% agarose gel and isolated from the gel. The LpxA open reading frame was cloned into a topoisomerase I-activated vector and transformed into E. coli. […] The newly synthesized plasmid containing the BamHI- and XhoI-flanked LpxA open reading frame and plasmid pET23a were digested with BamHI and XhoI at 37° C. for 2 hours, DNA was separated by agarose gel electrophoresis, isolated from the gel, and ligated. Ligation reactions were transformed into chemically competent E. coli and plasmid DNA was isolated. Restriction mapping was performed to determine which plasmids contained the LpxA open reading frame. To remove the T7 epitope coding sequence from the 5′end of the LpxA open reading frame, the pET23a plasmid containing the LpxA open reading frame was digested with the restriction enzymes BamHI and XhoI and a pET23b plasmid was digested with BglII and XhoI, DNA was separated by agarose gel electrophoresis, isolated from the gel, and ligated. Ligation reactions were transformed into chemically competent E. coli and plasmid DNA was isolated. Restriction mapping was performed to assess plasmids containing the LpxA open reading frame.
A 5 ml culture of E. Coli BL21 cells expressing the LpxA-6×His plasmid was grown overnight at 37° C. in LB medium containing 50 μg/ml ampicillin and 34 μg/ml chloramphenicol, then subcultured into 500 ml of the same medium and grown at 37° C. until A600=0.6. LpxA expression was induced by addition of 0.5 mM IPTG for three hours. The cells were centrifuged at 7 000×g for 10 minutes at 4° C. and lysed using a mild, nonionic detergent. The soluble fraction containing LpxA was added to 1 ml of nickel affinity resin in a 15 ml Falcon tube; the resin was washed extensively with extraction/wash buffer (50 mM Na-phosphate (pH 7.0) and 300 mM NaCl) prior to use. This mixture was incubated on a rotating platform at low speed for 20 minutes at room temperature. The resin was centrifuged at 1000 rpm in a bench top centrifuge for 2 min, washed twice (10 min each) with 10 ml of extraction/wash buffer, resuspended in 10 ml of extraction/wash buffer, and transferred to a 10 ml polypropylene disposable protein purification column. The column was eluted with 5 ml of 50 mM Na-phosphate (pH 7.0) containing 300 mM NaCl and 150 mM imidazole, collected in 1 ml fractions. The eluate was analysed by SDS-PAGE and was visualised using a protein stain (FIG. 7 inset).
Recombinant Vibrio harveyi acyl carrier protein was prepared from a GST fusion protein as described previously (Flaman et al., 2001). […]

Test [1] concerns LPS synthesis in E. coli strain D22. The experiment in a line: In vivo LPS synthesis: [3H]galactose incorporation into acid-precipitable material. It counts as cell-based. The method, then: LpxA catalyzes the first step in the synthesis of lipid A (the hydrophobic anchor of LPS), which is essential for the growth and pathogenesis of many gram-negative bacteria. The inhibition of LpxA activity would therefore result in decreased synthesis of LPS. To measure the synthesis of LPS in vivo, the incorporation of radiolabelled galactose into acid-precipitable material was determined. The E. coli strain used for these studies was D22 (obtained from the E. coli Genetic Stock Center), which contains a mutation in the LpxC gene (lpxC101; Normark et al., 1969, J Bacteriol 97, 1334). Strains harbouring this mutation have an increased susceptibility to antibiotics, in addition to producing approximately 30% less LPS (Grundstrom et al., 1980, J Bacteriol 144, 884.). Bacteria were grown in Luria broth to early-log phase, at which point, 500 μl was transferred to a culture tube containing 1 μl of [^3H]galactose (final concentration, 0.2 mM, 20 μCi/μmol) and mixed. Cultures were incubated at 30° C. for 75 minutes with shaking at 220 rpm. Incorporation was terminated by adding 400 μl of labelled culture to 44.4 μl of 100% trichloroacetic acid (TCA, 10% final concentration) in a 1.5 ml microcentrifuge tube. Tubes were vortexed, incubated on ice for 30 minutes, then centrifuged at 14 000 rpm for 5 minutes at room temperature. The pellet was rinsed twice with 1 ml of ice-cold 10% TCA, resuspended in 50 μl of formic acid, and transferred to a scintillation vial for counting.
Compounds to be tested were dissolved in DMSO and added to the bacterial culture prior to labelling with galactose, and LPS synthesis was determined as described previously. The final concentration of DMSO (1%, v/v) had minimal effect on LPS synthesis.

T1 sequence (P0A722 whole entry): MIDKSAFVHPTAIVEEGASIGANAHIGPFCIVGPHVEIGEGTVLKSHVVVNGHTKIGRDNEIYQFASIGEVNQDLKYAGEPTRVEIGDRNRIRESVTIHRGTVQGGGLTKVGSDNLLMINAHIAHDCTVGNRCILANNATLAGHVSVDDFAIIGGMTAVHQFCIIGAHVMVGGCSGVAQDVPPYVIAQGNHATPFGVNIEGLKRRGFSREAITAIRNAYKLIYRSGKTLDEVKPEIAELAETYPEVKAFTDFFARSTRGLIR

Consider `CCOC(=O)c1cccc(-c2cc(-c3nnn[nH]3)c(-c3cccc(C(=O)OCC)c3)s2)c1` [DNM-131I, 5-(2,5-Bis(3-(ethoxylcarbonyl)phenyl)thiophen-3-yl)-1H-tetrazole], for which, at recombinant E. coli LpxA, the inhibition at 5000 µM was over 80%. The “decrease of LPS synthesis” value in test [1] (1 mM, FIG. 10A) is recorded as about 80%.
For the molecule `COc1ccc(-c2cc(-c3nnn[nH]3)c(-c3ccc(OC)cc3)s2)cc1` [DNM-131D, 5-(2,5-Bis(4-methoxyphenyl)thiophen-3-yl)-1H-tetrazole], the inhibition at 5000 µM at recombinant E. coli LpxA is over 80%. The “decrease of LPS synthesis” value in test [1] (0.1 mM, FIG. 10B) was about 50%.

The values are drawn from patent US8835476B2, “Synthesis of novel antimicrobials” (priority 2005, dated 2014).
